System: pAMPK
Experiment: pAMPK immunostaining chemiluminescence assay in Beas2B cells
Format: cell-based
Details: Homo sapiens, BEAS-2B, 18 h, DMEM no glucose media, compounds 3-34, 36-44, 47-60 tested as HCl salts, read-out: efficacy (minimal compound concentration needed to increase pAMPK by 30%)
Protocol: Beas2B cells were plated in 384 white nunc plate (4000 cells per well) for overnight. Compounds were serially diluted in DMEM no glucose media using the liquid handler. Cells were washed once using Biotek EL406 before compound addition for additional 18 hours. Cells were washed and fixed with PFA before immunostained with pAMPK primary antibody and anti-Rabbit HRP secondary antibody. Finally, 25 μl of ECL reagent will be added to cells, and chemical luminescence signal will be counted using plate reader. Compounds efficacies (μM) were determined by the minimal compound concentration needed to increase pAMPK by 30%. Activity: “+” equals >10 μM; “++” equals between ≤10 μM and >1 μM; and “+++” equals ≤1 μM.

| Compound | EC (30% increase) |
| --- | --- |
| Cc1ccccc1CN(CC(O)COc1ccc(C(F)(F)F)cc1)S(=O)(=O)c1cccnc1 (stereo not shown) [compound 68] | ≤ 1 µM |
| Cc1ccccc1CN(Cc1c[nH]cn1)CC(O)COc1ccc(C(F)(F)F)cc1 (stereo not shown) [compound 69] | ≤ 1 µM |
| Cc1ccccc1CN(Cc1nccs1)CC(O)COc1ccc(C(F)(F)F)cc1 (stereo not shown) [compound 70] | ≤ 1 µM |
| Cc1ccccc1CN(Cc1sccc1C)CC(O)COc1ccc(C(F)(F)F)cc1 (stereo not shown) [compound 71] | 1 to 10 µM |
| Cc1ccccc1CN(Cc1nccn1C)CC(O)COc1ccc(C(F)(F)F)cc1 (stereo not shown) [compound 72] | ≤ 1 µM |
| Cc1ccccc1CN(Cc1c[nH]nc1-c1ccccc1)CC(O)COc1ccc(C(F)(F)F)cc1 (stereo not shown) [compound 73] | 1 to 10 µM |
| Cc1ccccc1CN(CC(O)COc1ccc(C(F)(F)F)cc1)C(=O)c1c[nH]cn1 (stereo not shown) [compound 74] | 1 to 10 µM |
| Cc1ccccc1CN(CC(O)COc1ccc(C(F)(F)F)cc1)C(=O)c1cc[nH]n1 (stereo not shown) [compound 75] | 1 to 10 µM |
| Cc1ccccc1CN(CC(O)COc1ccc(C(F)(F)F)cc1)C(=O)c1cn[nH]c1 (stereo not shown) [compound 76] | 1 to 10 µM |
| Cc1ccccc1CN(CC(O)COc1ccc(C(F)(F)F)cc1)C(=O)c1ncc[nH]1 (stereo not shown) [compound 77] | 1 to 10 µM |
| Cc1ccccc1CN(CC(O)COc1ccc(C(F)(F)F)cc1)C(=O)c1cocn1 (stereo not shown) [compound 78] | ≤ 1 µM |
| Cc1ccccc1CN(CC(O)COc1ccc(C(F)(F)F)cc1)C(=O)c1cnco1 (stereo not shown) [compound 79] | 1 to 10 µM |
| Cc1ccccc1CN(CC(O)COc1ccc(C(F)(F)F)cc1)C(=O)c1cn(C)cn1 (stereo not shown) [compound 80] | 1 to 10 µM |
| Cc1ccccc1CN(CC(O)COc1ccc(C(F)(F)F)cc1)C(=O)c1cncn1C (stereo not shown) [compound 81] | ≤ 1 µM |
| Cc1ccccc1CN(CC(O)COc1ccc(C(F)(F)F)cc1)C(=O)c1cnn(C)c1 (stereo not shown) [compound 82] | ≤ 1 µM |
| Cc1ccccc1CN(CC(O)COc1ccc(C(F)(F)F)cc1)C(=O)c1nccn1C (stereo not shown) [compound 83] | ≤ 1 µM |
| Cc1ccccc1CN(CC(O)COc1ccc(C(F)(F)F)cc1)C(=O)c1nccs1 (stereo not shown) [compound 84] | ≤ 1 µM |
| Cc1ccccc1CN(CC(O)COc1ccc(C(F)(F)F)cc1)C(=O)c1cscn1 (stereo not shown) [compound 85] | 1 to 10 µM |
| Cc1ccccc1CN(Cc1cnccc1C(F)(F)F)CC(O)COc1ccccc1 (stereo not shown) [compound 87] | 1 to 10 µM |
| Cc1ccccc1CN(CC(O)COc1ccccc1)C(=O)c1ccc(C(F)(F)F)nc1 (stereo not shown) [compound 88] | ≤ 1 µM |

| Compound | EC (30% increase) |
| --- | --- |
| Cc1ccccc1CN(CC(O)COc1ccc(C(F)(F)F)cc1)C(=O)c1c[nH]nc1C (stereo not shown) [compound 89] | 1 to 10 µM |
| O=C(c1cncs1)N(Cc1ccccc1Cl)CC(O)COc1ccc(C(F)(F)F)cc1 (stereo not shown) [compound 90] | ≤ 1 µM |
| Cn1ccnc1C(=O)N(Cc1ccccc1Cl)CC(O)COc1ccc(C(F)(F)F)cc1 (stereo not shown) [compound 91] | ≤ 1 µM |
| FC(F)(F)c1ccc(OCCCc2nc3ccccc3cc2-c2ccccc2)cc1 [compound 92] | 1 to 10 µM |
| OC(COc1ccc(C(F)(F)F)cc1)CN1CCc2ccccc2C1c1cncs1 (stereo not shown) [compound 93] | 1 to 10 µM |
| [2H]C1(c2cncs2)c2ccccc2CCN1CC(O)COc1ccc(C(F)(F)F)cc1 (stereo not shown) [compound 94] | 1 to 10 µM |
| OC(COc1ccc(C(F)(F)F)cc1)CN1CCc2ccccc2C1c1cccnc1 (stereo not shown) [compound 95] | ≤ 1 µM |
| [2H]C1(c2cccnc2)c2ccccc2CCN1CC(O)COc1ccc(C(F)(F)F)cc1 (stereo not shown) [compound 96] | ≤ 1 µM |
| OC(COc1ccc(C(F)(F)F)cc1)CN1Cc2ccccc2CC1c1cncs1 (stereo not shown) [compound 98] | 1 to 10 µM |
| [2H]C1(c2cncs2)c2ccccc2CCN1CCCOc1ccc(C(F)(F)F)cc1 (stereo not shown) [compound 99] | ≤ 1 µM |
| FC(F)(F)c1ccc(OCCCN2CCc3ccccc3C2c2cccnc2)cc1 (stereo not shown) [compound 100] | ≤ 1 µM |
| [2H]C1(c2cccnc2)c2ccccc2CCN1CCCOc1ccc(C(F)(F)F)cc1 (stereo not shown) [compound 101] | ≤ 1 µM |
| [2H]C([2H])(c1cccnc1)N(Cc1ccccc1Cl)CC(O)COc1ccc(C(F)(F)F)cc1 (stereo not shown) [compound 102] | ≤ 1 µM |
| O=C(COc1ccc(C(F)(F)F)cc1)Cc1nc2ccccc2cc1-c1cccnc1 [compound 103] | > 10 µM |
| FC(F)(F)c1ccc(OCCCN(Cc2cncs2)Cc2ccccc2Cl)cc1 [compound 104] | ≤ 1 µM |
| Cc1ccccc1CN(CCCOc1ccc(C(F)(F)F)cc1)Cc1nccn1C [compound 105] | ≤ 1 µM |
| Cn1ccnc1CN(CCCOc1ccc(C(F)(F)F)cc1)Cc1ccccc1Cl [compound 106] | ≤ 1 µM |
| FC(F)(F)c1ccc(OCCCN2CCc3ccccc3C2c2cncs2)cc1 (stereo not shown) [compound 107] | ≤ 1 µM |
| Cn1cncc1C(=O)N(Cc1ccccc1Cl)CC(O)COc1ccc(C(F)(F)F)cc1 (stereo not shown) [compound 108] | ≤ 1 µM |
| Cc1ccccc1CN(CCCOc1ccc(C(F)(F)F)cc1)C(=O)c1cncn1C [compound 109] | ≤ 1 µM |

| Compound | EC (30% increase) |
| --- | --- |
| Cc1ccccc1CN(CCCOc1ccc(C(F)(F)F)cc1)C(=O)c1ccccc1 [compound 110] | ≤ 1 µM |
| OC(COc1ccc(C(F)(F)F)cc1)CN1CCc2ccccc2[C@@H]1c1ccccc1 (stereo partly shown) [compound 111] | 1 to 10 µM |
| O[C@@H](COc1ccc(C(F)(F)F)cc1)CN1CCc2ccccc2[C@@H]1c1ccccc1 [compound 112] | ≤ 1 µM |
| O[C@H](COc1ccc(C(F)(F)F)cc1)CN1CCc2ccccc2[C@@H]1c1ccccc1 [compound 113] | 1 to 10 µM |
| OC(COc1ccc(C(F)(F)F)cc1)CN1CCc2ccccc2[C@H]1c1ccccc1 (stereo partly shown) [compound 114] | > 10 µM |
| O[C@H](COc1ccc(C(F)(F)F)cc1)CN1CCc2ccccc2[C@H]1c1ccccc1 [compound 115] | 1 to 10 µM |
| O[C@@H](COc1ccc(C(F)(F)F)cc1)CN1CCc2ccccc2[C@H]1c1ccccc1 [compound 116] | > 10 µM |
| Cc1ccccc1CN(Cc1cccnc1)C(=O)C(O)COc1ccc(C(F)(F)F)cc1 (stereo not shown) [compound 117] | 1 to 10 µM |
| Cc1ccccc1CN(CC(O)COc1ccc(C(F)(F)F)cc1)C(C)c1cccnc1 (stereo not shown) [compound 118] | > 10 µM |
| Cc1ccccc1CN(CCCOc1ccc(C(F)(F)F)cc1)Cc1cncn1C [compound 119] | ≤ 1 µM |
| Cc1ccccc1CN(Cc1cccnc1)CC(C)(C)COc1ccc(C(F)(F)F)cc1 [compound 121] | ≤ 1 µM |
| Cn1cncc1CN(CCCOc1ccc(C(F)(F)F)cc1)Cc1ccccc1Cl [compound 122] | ≤ 1 µM |
| Cc1ccccc1CN(CC(=O)COc1ccc(C(F)(F)F)cc1)C(=O)c1cccnc1 [compound 123] | 1 to 10 µM |
| FC(F)(F)c1ccc(OCCCN2Cc3ccccc3CC2c2cncs2)cc1 (stereo not shown) [compound 124] | 1 to 10 µM |
| Cn1cncc1C(=O)N(CCCOc1ccc(C(F)(F)F)cc1)Cc1ccccc1Cl [compound 125] | ≤ 1 µM |
| CC(=O)OC(COc1ccc(C(F)(F)F)cc1)C(=O)N(Cc1cncs1)Cc1ccccc1Cl (stereo not shown) [compound 126] | > 10 µM |
| CC(=O)OC(COc1ccc(C(F)(F)F)cc1)C(=O)N(Cc1cccnc1)Cc1ccccc1Cl (stereo not shown) [compound 127] | ≤ 1 µM |
| OC(COc1ccc(C(F)(F)F)cc1)CN1Cc2ccccc2C[C@@H]1c1cccnc1 (stereo partly shown) [compound 129] | ≤ 1 µM |

Source: patent publication US12428378B2, “Methods and materials for increasing level of phosphorylated AMPK protein” (University of Pittsburgh—Of the Commonwealth System of …, priority 2019, dated 2025)
